Measurements taken from patent US20070037785A1, “Novel dipeptidyl peptidase IV inhibitors used for functionally influencing different cells and treating immunological, infammatory, neuronal, and other diseases” (priority 2003, published 2007).
Read-outs that look alike come from different tables or passages of the source.

Legend:
[1] = test system: Ovalbumine-induced Asthma Bronchiale of Mice; assay: Ovalbumine-induced asthma bronchiale of mice, pulmonal function (EF50); type: in vivo, Balb/c Mice; details: 0.1 mg (of each) inhibitor i.p. on days 28-35; FIG. 3A
Description: Therapeutic Effect of the Combined Inhibition of Dipeptidyl Peptidase IV and of Enzymes Having an Analogous Effect as well as of the Alanyl Aminopeptidase and of Enzymes Having an Analogous Effect on the Ovalbumine-induced Asthma Bronchiale of Mice (Animal Model of Human Asthma Bronchiale).
Female Balb/c Mice were sensitized for the antigen ovalbumine capable of inducing asthma bronchiale by an intreperitoneal administration of […] ovalbumine on the days 0, 14 and 21. On day 27/28, the animals received a boostering dose of ovalbumine by inhalation [vD3]. After an intreperitoneal administration of the peptidase inhibitors on the days 28-35, there was effected an intranasal ovalbumine challenge on day 35, as well as a check of the allergic premature reaction via the pulmonal function. There were measured: the average expiratory flux (EF50), the tidal volume, the respiration rate and the minute volume as well as the number of eosinophilic granulocytes in the bronchoalveolar lavage. 8 to 10 animals were used per experimental group. By way of example, in FIG. 3A, there is summarized the effect of the peptidase inhibitors on the reduction of the EF50 value. […] Group E represents animals which were not sensitized by OVA, but which were subjected—beyond that—all procedures to which the animal groups A to D were subjected.

[2] = test system: Dextran Sulfate-induced Colitis of Mice; assay: Dextran sulfate-induced colitis of mice, disease score; type: in vivo, Balb/c mice; details: 10 pg single inhibitor i.p. on three successive days from day 5; day 7; slight, but insignificant
[3] = biological target: dipeptidyl peptidase IV (Homo sapiens, UniProt P27487); assay: biochemical
[4] = values without "*" = IC-50, read-out: IC50DPIV
[5] = values marked with "*" are ID50 values, read-out: IC50DPIV, values marked with "*" = ID50

Sequence of dipeptidyl peptidase IV (P27487 whole entry, species assumed): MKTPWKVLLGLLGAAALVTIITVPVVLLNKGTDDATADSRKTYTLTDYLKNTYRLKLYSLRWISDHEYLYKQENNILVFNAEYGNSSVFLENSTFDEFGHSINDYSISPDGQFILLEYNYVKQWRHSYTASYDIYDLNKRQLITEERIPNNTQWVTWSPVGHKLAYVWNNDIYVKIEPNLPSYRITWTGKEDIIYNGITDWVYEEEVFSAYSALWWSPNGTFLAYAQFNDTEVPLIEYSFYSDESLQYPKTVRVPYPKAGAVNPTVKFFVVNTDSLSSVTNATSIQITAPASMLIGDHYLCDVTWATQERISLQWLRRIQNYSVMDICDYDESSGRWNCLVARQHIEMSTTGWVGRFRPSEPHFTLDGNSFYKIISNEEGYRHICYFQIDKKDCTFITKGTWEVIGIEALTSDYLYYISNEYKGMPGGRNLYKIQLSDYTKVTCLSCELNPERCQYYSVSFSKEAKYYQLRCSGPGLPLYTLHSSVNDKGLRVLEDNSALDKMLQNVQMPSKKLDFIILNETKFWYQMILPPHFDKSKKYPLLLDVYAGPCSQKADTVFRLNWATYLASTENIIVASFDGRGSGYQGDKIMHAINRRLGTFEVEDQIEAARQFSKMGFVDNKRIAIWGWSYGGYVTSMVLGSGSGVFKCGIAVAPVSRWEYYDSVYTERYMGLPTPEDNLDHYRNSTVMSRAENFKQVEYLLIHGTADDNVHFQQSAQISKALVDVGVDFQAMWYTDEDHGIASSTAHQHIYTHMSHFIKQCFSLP

Row | SMILES | IC50 [3, 4] [µM] | IC50 [3, 5] [µM] | other results
1 | CCCCC[C@H](CC(=O)NO)C(=O)N[C@H](C(=O)N1CCC[C@H]1CO)C(C)C [Actinonine] | – | – | therapeutic effect on the reduction of the EF50 value [1]: showed a therapeutic effect; reduction of the heaviness of the disease (score) [2]: −16.5%
2 | Nc1nonc1-n1nnc(C(=O)NN=C2c3ccccc3-c3ccccc32)c1-c1ccccc1 [D13.001] | 10.1 | – | –
3 | COCC(=O)CC(N)c1ccc(C)cc1 (stereo not shown) [D13.002] | 23.3 | – | –
4 | CC(N)C(CC(=O)O)c1ccccc1 (stereo not shown) [D13.003] | 38 | – | –
5 | CCCn1c(N2CCN(CC(=O)Nc3c(C(=O)OCC)[nH]c4ccc(F)cc34)CC2)nc2c1c(=O)[nH]c(=O)n2C [D13.004] | – | 69.8 | –
6 | CCOC(=O)CC(N)c1ccccc1Cl (stereo not shown) [D13.005] | 72.2 | – | –
7 | CCOC(=O)CC(N)c1ccc(OC)cc1 (stereo not shown) [D13.006] | – | 83.3 | –
8 | O=C(Nc1cccc(/N=C/c2cc(/N=N\c3ccccc3Cl)ccc2O)c1)c1ccco1 [D14.002] | – | 2.5 | –
9 | O=C(NNC1=C(Cl)C(=O)C(Cl)(Cl)C1=O)c1ccccc1 [D14.004] | 26.2 | – | –
10 | N[C@@H](CCCCNC(=O)OCc1ccc([N+](=O)[O-])cc1)C(=O)N1CCCC1 [Lys[Z(NO2)] pyrrolidide] | – | – | therapeutic effect on the reduction of the EF50 value [1]: showed a therapeutic effect

Second part, led by results:

Row | IC50 [3, 4] [µM] | IC50 [3, 5] [µM] | SMILES | other results
11 | – | 344 | CN(C)c1ccc(C2C3C(=O)N(c4ccccc4)C(=O)C3ON2c2ccc(Cl)cc2)cc1 (stereo not shown) [D13.007] | –
12 | – | 1.2 | CCC(O)(CC)C(=O)NNc1ccc(C)cc1C [D14.001] | –
13 | 5.7 | – | CCC(O)(CC)C(=O)NNc1ccccc1C [D14.003] | –
14 | 26.7 | – | CCC(O)(CC)C(=O)NNc1ccc(C)cc1 [D14.005] | –
15 | – | 456 | CCC(O)(CC)C(=O)NN(C(=O)CNS(=O)(=O)c1ccc(C)cc1)c1ccccc1 [D14.007] | –
